Reference: US20050234111A1, “D-homo-17-chlor-16(17)-ene steroids” (priority 2004, published 2005)

Biological target: T1, androgen receptor (Rattus norvegicus, UniProt P15207)
T1 construct: on receptors in cystosol from animal target organs; from tissue; host or cells: prostate cytosol of castrated rat
T1 sequence (P15207 1-902): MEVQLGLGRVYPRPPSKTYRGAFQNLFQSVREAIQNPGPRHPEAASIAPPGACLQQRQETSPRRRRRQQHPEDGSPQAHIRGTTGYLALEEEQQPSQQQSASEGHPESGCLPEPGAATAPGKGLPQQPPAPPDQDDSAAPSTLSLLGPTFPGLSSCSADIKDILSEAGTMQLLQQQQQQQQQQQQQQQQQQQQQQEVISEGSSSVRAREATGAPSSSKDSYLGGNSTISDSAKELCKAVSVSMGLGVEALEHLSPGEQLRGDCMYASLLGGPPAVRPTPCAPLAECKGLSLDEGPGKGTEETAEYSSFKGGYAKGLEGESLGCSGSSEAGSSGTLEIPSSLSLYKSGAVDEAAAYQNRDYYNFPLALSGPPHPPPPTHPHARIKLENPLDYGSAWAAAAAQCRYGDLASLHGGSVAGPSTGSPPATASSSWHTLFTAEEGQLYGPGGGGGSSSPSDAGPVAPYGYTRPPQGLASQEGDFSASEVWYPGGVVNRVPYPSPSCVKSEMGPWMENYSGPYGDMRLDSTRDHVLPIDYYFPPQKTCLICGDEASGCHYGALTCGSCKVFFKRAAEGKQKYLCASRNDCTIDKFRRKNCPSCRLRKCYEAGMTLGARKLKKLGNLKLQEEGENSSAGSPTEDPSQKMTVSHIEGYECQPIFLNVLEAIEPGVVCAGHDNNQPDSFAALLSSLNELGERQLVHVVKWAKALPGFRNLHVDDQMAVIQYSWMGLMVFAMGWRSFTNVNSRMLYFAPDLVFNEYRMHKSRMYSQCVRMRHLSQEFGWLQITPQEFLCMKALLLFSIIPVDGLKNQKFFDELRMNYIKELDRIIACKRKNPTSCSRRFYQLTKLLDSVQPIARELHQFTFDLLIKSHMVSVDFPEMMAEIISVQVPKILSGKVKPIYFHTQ
Assay: Measurement of the androgen receptor binding affinity (competitive binding with 3H-Metribolone tracer in prostate cytosol)
Details: prostate cytosol of the castrated rat; tracer 3H-Metribolone; reference substance DHT = 100%; 0-4° C., 18 hours
Procedure: Measurement of the androgen receptor binding affinity:
The receptor binding affinity was determined by competitive binding of a specifically binding 3H-labeled hormone (tracer) and the compound to be tested on receptors in cystosol from animal target organs. In this case, receptor saturation and reaction equilibrium were desired.
The tracer and increasing concentrations of the compound to be tested (competitor) were co-incubated at 0-4° C. over 18 hours with the receptor-containing cytosol fraction. After separation of the unbonded tracer with carbon-dextran suspension, the receptor-bonded tracer portion was measured for each concentration and the IC50 was determined from the concentration series.
The following incubation conditions were selected:
Prostate cytosol of the castrated rat; prostates stored at −30° C.;

Going from `CC1CC2=CC(=O)CCC2(C)C2CCC3(C)C(O)C(Cl)=CCC3C12` (stereo not drawn) [Compound 2, 17-Chloro-17aβ-hydroxy-7α-methyl-17a-homoandrosta-4,16-dien-3-one] to `CC1CC2=CC(=O)CCC2C2CCC3(C)C(O)C(Cl)=CCC3C12` (stereo not drawn) [Compound 18, 17-Chloro-17aβ-hydroxy-7α-methyl-17a-homo-estra-4,16-dien-3-one], the “RBA % (relative molar binding affinity)” value rises from 46% to 105%.

Compared with `CC12CCC3C4CCC(=O)C(O)=C4CCC3C1CC=C(Cl)C2O` (centres unmarked) [Compound 21, 17-Chloro-4,17aβ-dihydroxy-17a-homo-estra-4,16-dien-3-one], `C[C@]12CC[C@H]3[C@@H](CCC4=CC(=O)CC[C@@H]43)[C@@H]1CC=C(Cl)[C@@H]2O` [Compound 17, 17-Chloro-17aβ-hydroxy-17a-homo-estra-4,16-dien-3-one] is higher in “RBA % (relative molar binding affinity)” value: 70% for the first, 80% for the second.

With `C[C@]12CC[C@H]3[C@@H](CCC4=C(C(F)(F)F)C(=O)CC[C@@]43C)[C@@H]1CC=C(Cl)[C@@H]2O` [Compound 9, 17-Chloro-17aβ-hydroxy-4-trifluoromethyl-17a-homoandrosta-4,16-dien-3-one] the “RBA % (relative molar binding affinity)” value was 51%.
